Measured values from patent publication US11590116B2 (THERAVANCE BIOPHARMA R&D IP, LLC, priority 2019, dated 2023).

Experiments:
[1] = biological target: T1, recombinant human ALK5 (TGF-βR1) protein (Homo sapiens, UniProt P36897); assay: Biochemical ALK5 (TGF-βR1) assay to measure pKi (LANCE Ultra ULight kinase assay); conditions: apparent pKi from pIC50 by Cheng-Prusoff, read-out: ALK5 pKi (converted)
T1 construct: purchased Life Technologies PR9075A
T1 sequence (P36897 34-503): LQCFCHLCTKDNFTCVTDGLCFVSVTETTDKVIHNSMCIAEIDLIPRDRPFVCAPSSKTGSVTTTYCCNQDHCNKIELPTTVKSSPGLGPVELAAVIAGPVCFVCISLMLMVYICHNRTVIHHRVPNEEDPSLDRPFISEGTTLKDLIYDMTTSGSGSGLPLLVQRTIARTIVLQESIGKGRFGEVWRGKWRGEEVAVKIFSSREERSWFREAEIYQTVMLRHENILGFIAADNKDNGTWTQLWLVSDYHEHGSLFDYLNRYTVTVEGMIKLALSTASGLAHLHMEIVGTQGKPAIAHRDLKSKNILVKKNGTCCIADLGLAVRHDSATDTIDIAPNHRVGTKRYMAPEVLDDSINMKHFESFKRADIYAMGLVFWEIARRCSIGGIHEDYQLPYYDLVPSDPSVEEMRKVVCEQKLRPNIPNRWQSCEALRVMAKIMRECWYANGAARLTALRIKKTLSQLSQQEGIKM
Method in brief: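 Dose range 10 μM–25 pM; enzyme + compound 60 min RT; ATP added (5× stock 125 μM, 2 mM DTT); 60 min 37 °C; stop with EDTA + Eu anti-phospho-Topo IIα Thr1342 Ab; TR-FRET ex 320/340, em 665 nm. 4-param pIC50 → pKi (Cheng-Prusoff).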

[2] = system: TGF-β-stimulated SMAD3 phosphorylation in BEAS-2B cells; assay: Cellular ALK5 potency assay, inhibition of TGF-β stimulated pSMAD3 formation in BEAS-2B cells; assay type: cell-based; conditions: Homo sapiens; inhibition of TGF-β stimulated pSMAD3 formation, BEAS-2B cells; read-out: BEAS2B pIC50 (converted)
Method in brief: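 AlphaLISA pSMAD3 read-out, beads incubated overnight. Human BEAS-2B cells: 1 h compound preincubation (37 °C, 5% CO2), then 30 min TGF-β at 10 ng/mL final, immediate lysis. Values are pIC50 relative to stimulated, compound-free baseline.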

Structure (SMILES): Cc1cccc(-c2n[nH]cc2-c2ccc3ncc(-c4cn(Cc5cccnc5)nn4)cc3n2)n1 [Compound 35, 2-[3-(6-methyl-2-pyridyl)-1H-pyrazol-4-yl]-7-[1-(3-pyridylmethyl)triazol-4-yl]-1,5-naphthyridine]
- Ki [1]: 0.0398 to 0.316 nM
- IC50 [2]: < 20 nM

Structure (SMILES): Cc1cccc(-c2[nH]cnc2-c2ccc3ncc(C4=CCC(C(=O)OCC5CNC5)CC4)cc3c2)n1 (centres unmarked) [Compound 36, azetidin-3-ylmethyl 4-[6-[5-(6-methyl-2-pyridyl)-1H-imidazol-4-yl]-3-quinolyl]cyclohex-3-ene-1-carboxylate]
- Ki [1]: 0.0398 to 0.316 nM
- IC50 [2]: 25.1 to 158 nM

Structure (SMILES): COC[C@H]1CN(CCNc2cnc3ccc(-c4nc[nH]c4-c4cccc(C)n4)cc3c2)CCN1 [Compound 37, N-[2-[(3R)-3-(methoxymethyl)piperazin-1-yl]ethyl]-6-[5-(6-methyl-2-pyridyl)-1H-imidazol-4-yl]quinolin-3-amine]
- Ki [1]: 0.0398 to 0.316 nM
- IC50 [2]: 25.1 to 158 nM

Structure (SMILES): Cc1cccc(-c2c(-c3ccc4ncc(N5CCC(N(C)C)C5)cc4c3)nnn2Cc2ccccc2)n1 (centres unmarked) [Compound 38, 1-[6-[1-benzyl-5-(6-methyl-2-pyridyl)triazol-4-yl]-3-quinolyl]-N,N-dimethyl-pyrrolidin-3-amine]
- Ki [1]: 0.398 to 3.16 nM
- IC50 [2]: 1580 to 10000 nM

Structure (SMILES): Cc1nc(-c2n[nH]cc2-c2ccc3ncc(-c4ncc5n4CCNC5)cc3n2)ccc1F [Compound 39, 2-[3-(5-fluoro-6-methyl-2-pyridyl)-1H-pyrazol-4-yl]-7-(5,6,7,8-tetrahydroimidazo[1,5-a]pyrazin-3-yl)-1,5-naphthyridine]
- Ki [1]: 0.398 to 3.16 nM
- IC50 [2]: 200 to 1260 nM

Structure (SMILES): Cc1cccc(-c2n[nH]cc2-c2ccc3ncc(-c4nnc5n4CCNC5)cc3n2)n1 [Compound 40, 2-[3-(6-methyl-2-pyridyl)-1H-pyrazol-4-yl]-7-(5,6,7,8-tetrahydro-[1,2,4]triazolo[4,3-a]pyrazin-3-yl)-1,5-naphthyridine]
- Ki [1]: 3.98 to 31.6 nM
- IC50 [2]: 1580 to 10000 nM

Structure (SMILES): Cc1cccc(-c2[nH]cnc2-c2ccc3ncc(N4CCC(C(=O)O[C@@H]5CCNC5)CC4)cc3c2)n1 [Compound 41, [(3R)-pyrrolidin-3-yl] 1-[6-[5-(6-methyl-2-pyridyl)-1H-imidazol-4-yl]-3-quinolyl]piperidine-4-carboxylate]
- Ki [1]: 0.0398 to 0.316 nM
- IC50 [2]: 25.1 to 158 nM

Structure (SMILES): COc1[nH]nc(-c2cccc(C)n2)c1-c1ccc2ncc(Br)cc2n1 [Compound 42, 7-bromo-2-(5-methoxy-3-(6-methylpyridin-2-yl)-1H-pyrazol-4-yl)-1,5-naphthyridine]
- Ki [1]: 0.0398 to 0.316 nM
- IC50 [2]: 25.1 to 158 nM

Structure (SMILES): Cc1nc(-c2n[nH]cc2-c2ccc3ncc(NCCN4CCN(C(C)C)CC4)cc3n2)ccc1F [Compound 43, 6-[3-(5-fluoro-6-methyl-2-pyridyl)-1H-pyrazol-4-yl]-N-[2-(4-isopropylpiperazin-1-yl)ethyl]-1,5-naphthyridin-3-amine]
- Ki [1]: 0.0398 to 0.316 nM
- IC50 [2]: 25.1 to 158 nM

Structure (SMILES): Cc1cccc(-c2n[nH]cc2-c2ccc3ncc(C(=O)NCCN4CCOCC4)cc3n2)n1 [Compound 44, 6-[3-(6-methyl-2-pyridyl)-1H-pyrazol-4-yl]-N-(2-morpholinoethyl)-1,5-naphthyridine-3-carboxamide]
- Ki [1]: < 0.0316 nM
- IC50 [2]: 25.1 to 158 nM

Structure (SMILES): CNC1CCN(c2cnc3ccc(-c4c[nH]nc4-c4cccc(C)n4)nc3c2)CC1 [Compound 45, N-methyl-1-[6-[3-(6-methyl-2-pyridyl)-1H-pyrazol-4-yl]-1,5-naphthyridin-3-yl]piperidin-4-amine]
- Ki [1]: < 0.0316 nM
- IC50 [2]: 25.1 to 158 nM

Structure (SMILES): Cc1cccc(-c2[nH]nnc2-c2ccc3ncc(NCCN4CCN(C(C)C)CC4)cc3n2)n1 [Compound 46, N-[2-(4-isopropylpiperazin-1-yl)ethyl]-6-[5-(6-methyl-2-pyridyl)-1H-triazol-4-yl]-1,5-naphthyridin-3-amine]
- Ki [1]: 0.398 to 3.16 nM
- IC50 [2]: 200 to 1260 nM

Structure (SMILES): Cc1nc(-c2nc3ccccn3c2-c2ccc3ncc(N4CCC(N5CCN(C)CC5)CC4)cc3n2)ccc1F [Compound 47, 2-[2-(5-fluoro-6-methyl-2-pyridyl)imidazo[1,2-a]pyridin-3-yl]-7-[4-(4-methylpiperazin-1-yl)-1-piperidyl]-1,5-naphthyridine]
- Ki [1]: 0.0398 to 0.316 nM
- IC50 [2]: 200 to 1260 nM

Structure (SMILES): Cc1cccc(-c2n[nH]cc2-c2ccc3ncc(-c4cn(Cc5ccccc5)nn4)cc3n2)n1 [Compound 48, 7-(l-benzyltriazol-4-yl)-2-[3-(6-methyl-2-pyridyl)-1H-pyrazol-4-yl]-1,5-naphthyridine]
- Ki [1]: 0.0398 to 0.316 nM
- IC50 [2]: < 20 nM

Structure (SMILES): Cc1cccc(-c2[nH]cnc2-c2ccc3ncc(C4=CCC(C(=O)O[C@@H]5CCNC5)CC4)cc3c2)n1 (stereo partly drawn) [Compound 49, [(3R)-pyrrolidin-3-yl] 4-[6-[5-(6-methyl-2-pyridyl)-1H-imidazol-4-yl]-3-quinolyl]cyclohex-3-ene-1-carboxylate]
- Ki [1]: 0.0398 to 0.316 nM
- IC50 [2]: 25.1 to 158 nM

Structure (SMILES): Cc1cccc(-c2[nH]cnc2-c2ccc3ncc(NC4CNC4)cc3c2)n1 [Compound 50, N-(azetidin-3-yl)-6-[5-(6-methyl-2-pyridyl)-1H-imidazol-4-yl]quinolin-3-amine]
- Ki [1]: 0.0398 to 0.316 nM
- IC50 [2]: 25.1 to 158 nM

Structure (SMILES): Cc1nc(-c2n[nH]cc2-c2ccc3ncc(-c4nc(C(F)(F)F)n5c4CNCC5)cc3n2)ccc1F [Compound 51, 2-[3-(5-fluoro-6-methyl-2-pyridyl)-1H-pyrazol-4-yl]-7-[3-(trifluoromethyl)-5,6,7,8-tetrahydroimidazo[1,5-a]pyrazin-1-yl]-1,5-naphthyridine]
- Ki [1]: 0.0398 to 0.316 nM
- IC50 [2]: 25.1 to 158 nM

Structure (SMILES): Cc1cccc(-c2n[nH]cc2-c2ccc3ncc(N4CCC[C@H]4CO)cc3n2)n1 [Compound 52, [(2S)-1-[6-[3-(6-methyl-2-pyridyl)-1H-pyrazol-4-yl]-1,5-naphthyridin-3-yl]pyrrolidin-2-yl]methanol]
- Ki [1]: 0.0398 to 0.316 nM
- IC50 [2]: 25.1 to 158 nM

Structure (SMILES): COC(=O)c1cnc2ccc(-c3cn[nH]c3-c3cccc(C)n3)nc2c1 [Compound 53, methyl 6-[5-(6-methyl-2-pyridyl)-1H-pyrazol-4-yl]-1,5-naphthyridine-3-carboxylate]
- Ki [1]: 0.0398 to 0.316 nM
- IC50 [2]: 25.1 to 158 nM

Structure (SMILES): Cc1cccc(-c2[nH]cnc2-c2ccc3ncc(-c4ccc(C(=O)OCC5CNC5)nc4)cc3c2)n1 [Compound 54, azetidin-3-ylmethyl 5-[6-[5-(6-methyl-2-pyridyl)-1H-imidazol-4-yl]-3-quinolyl]pyridine-2-carboxylate]
- Ki [1]: 0.0398 to 0.316 nM
- IC50 [2]: 200 to 1260 nM

Structure (SMILES): Cc1cccc(-c2n[nH]cc2-c2ccc3ncc(C(=O)NCCCN4CCN(C(C)C)CC4)cc3n2)n1 [Compound 55, N-[3-(4-isopropylpiperazin-1-yl)propyl]-6-[3-(6-methyl-2-pyridyl)-1H-pyrazol-4-yl]-1,5-naphthyridine-3-carboxamide]
- Ki [1]: 0.0398 to 0.316 nM
- IC50 [2]: 200 to 1260 nM

Structure (SMILES): Cc1cccc(-c2[nH]cnc2-c2ccc3ncc(NCCN4CCCC4(C)C)cc3c2)n1 [Compound 56, N-[2-(2,2-dimethylpyrrolidin-1-yl)ethyl]-6-[5-(6-methyl-2-pyridyl)-1H-imidazol-4-yl]quinolin-3-amine]
- Ki [1]: < 0.0316 nM
- IC50 [2]: 25.1 to 158 nM

Structure (SMILES): Cc1ccc(S(=O)(=O)NCC(=O)Nc2cnc3ccc(-c4c[nH]nc4-c4cccc(C)n4)nc3c2)cc1 [Compound 57, N-[6-[3-(6-methyl-2-pyridyl)-1H-pyrazol-4-yl]-1,5-naphthyridin-3-yl]-2-(p-tolylsulfonylamino)acetamide]
- Ki [1]: 0.0398 to 0.316 nM
- IC50 [2]: 25.1 to 158 nM

Structure (SMILES): Cc1cccc(-c2n[nH]cc2-c2ccc3ncc(-c4cccc(F)c4)cc3n2)n1 [Compound 58, 7-(3-fluorophenyl)-2-[3-(6-methyl-2-pyridyl)-1H-pyrazol-4-yl]-1,5-naphthyridine]
- Ki [1]: 0.0398 to 0.316 nM
- IC50 [2]: 25.1 to 158 nM

Structure (SMILES): Cc1cccc(-c2n[nH]cc2-c2ccc3ncc(N(C)C)cc3n2)n1 [Compound 59, N,N-dimethyl-6-[3-(6-methyl-2-pyridyl)-1H-pyrazol-4-yl]-1,5-naphthyridin-3-amine]
- Ki [1]: 0.0398 to 0.316 nM
- IC50 [2]: < 20 nM

Structure (SMILES): COC(=O)CC1CN(c2cnc3ccc(-c4nc[nH]c4-c4cccc(C)n4)cc3c2)CCN1 (centres unmarked) [Compound 60, methyl 2-(4-(6-(5-(6-methylpyridin-2-yl)-1H-imidazol-4-yl)quinolin-3-yl)piperazin-2-yl)acetate]
- Ki [1]: 0.0398 to 0.316 nM
- IC50 [2]: 25.1 to 158 nM

Structure (SMILES): COc1ncccc1-c1cnc2ccc(-c3c[nH]nc3-c3cccc(C)n3)nc2c1 [Compound 61, 7-(2-methoxy-3-pyridyl)-2-[3-(6-methyl-2-pyridyl)-1H-pyrazol-4-yl]-1,5-naphthyridine]
- Ki [1]: 0.0398 to 0.316 nM
- IC50 [2]: 25.1 to 158 nM

Structure (SMILES): Cc1cccc(-c2[nH]ncc2-c2ccc3ncc(C(=O)OC4CCC5(CNC5)C4)cc3n2)n1 (centres unmarked) [Compound 62, 2-azaspiro[3.4]octan-6-yl 6-[5-(6-methyl-2-pyridyl)-1H-pyrazol-4-yl]-1,5-naphthyridine-3-carboxylate]
- Ki [1]: 0.0398 to 0.316 nM
- IC50 [2]: 200 to 1260 nM
